Laboratory results published in patent publication US20210106650A1, “MICROBICIDAL COMPOSITIONS AND METHODS FOR TREATMENT OF VIRAL INFECTIONS” (University of Louisville Research Foundation, Inc., priority 2015, published 2021).
≈ marks a conversion by molar mass, not a printed value. Structures can show the parent of a compound that is named as a salt. Where two headings read alike, the source gives them in different places.

Assays:
HSV-2 [1] = test: HSV-2 plaque assay in Vero E6 cells with EF eluants; format: cell-based
Method: Initially, experiments were undertaken to determine the in vitro efficacy of unmodified EFs that encapsulated antivirals (ACV and TDF) or are surface-modified with GRFT, against HSV-2 infection. […] The top row of each plate contained cells that were incubated with blank PLGA or PLCL EFs. […] After infection, cells were incubated with IgG to neutralize free HSV-2, and EF eluants were administered to Vero E6 cells. Appropriate controls of: [no treatment/no virus], [no treatment/virus], [blank PLGA or PLCL EFs, virus], and [free ACV, virus] were conducted. […] Similarly, fibers were assessed after 28 days to ensure bioactivity after one month in SVF. […] Only one of the three IC50 curves is shown for each in FIG. 13 for purposes of brevity.

HIV-1 = test: Env-pseudotyped virus infectivity assay of TDF EFs in TZM-bl cells; format: cell-based; conditions: EFs given 1 and 24 hr before infection
Method: A reporter gene expression Env-pseudotyped virus infectivity assay was used, as described previously, to measure the HIV-1 antiviral activity of the TDF PLGA and PLCL EFs. Antiviral activity was measured as a reduction in firefly Luciferase (Luc) reporter gene expression after administration of different EF concentrations 1 and 24 hr before a single round of infection in TZM-bl cells (i.e., the engineered HeLa cell clone that stably expresses CD4, CCR5, and CXCR4 receptors and contains HIV-1 Tat-regulated reporter genes for firefly luciferase and B-galactosidase). One set of 8 control wells received only cells plus virus (virus control), and another set of 8 wells received cells only (background control). After 48 hr incubation, culture medium was removed from each well, an equal volume of Bright-Glo™ reagent was added, and luminescence was measured. The EC50 was determined as the TDF-EF concentration that caused a 50% reduction in RLU relative to virus control wells after subtraction of background RLU (FIG. 14).

[2] = tested on: HIV-1 pseudovirus (CCR5-using clade A strain Q769.h5); test: Env-pseudotyped virus infectivity assay in TZM-bl cells (luciferase); format: cell-based; conditions: similar administration durations
Text: Materials. Carboxyl-terminated 50:50 poly(lactic-co-glycolic acid) (PLGA, 0.55-0.75 dL/g, 31-57 k MW) was purchased from Lactel Absorbable Polymers (Cupertino, Calif.). Dichloromethane (DCM), dimethyl sulfoxide (DMSO), and the MTT assay kit were obtained from Sigma Aldrich (St Louis, Mo.). 1,1,1,3,3,3-hexafluoro-2-propanol (HFIP) was obtained from Fisher Scientific (Pittsburgh, Pa.). GRFT (MW 12.7 kDa) was produced in Nicotiana benthamiana as previously reported. Fetal bovine serum (FBS) and antibiotics (penicillin/streptomycin) were purchased from VWR. Dulbecco's modified Eagle's medium (DMEM) and keratinocyte serum-free medium were purchased from Invitrogen. The EDC-NHS and enzyme-linked immunosorbent assay (ELISA) kits were purchased from ThermoFisher. Simulated vaginal fluid (SVF) was prepared as described previously. […]
Cell lines. […] Vaginal keratinocyte, VK2/E6E7 (VK2); ectocervical, Ect1/E6E7 (Ect1); and endocervical, End1/E6E7 (End1) cell lines, obtained from ATCC, were evaluated in cytotoxicity experiments. […]
In vitro antiviral activity of GRFT-EFs. […] The anti-HIV activity of the GRFT-EFs was measured as a reduction in firefly luciferase (Luc) reporter gene expression in the presence of GRFT-EFs compared to unmodified EFs after a single round of infection in TZM-bl cells. […]

HIV-1BaL = test: HIV-1 infection of polarized ectocervical tissue explants; format: cell-based, human
[3] = tested on: HIV-1 pseudovirus (CCR5-using clade A strain Q769.h5); conditions: same virus strain (Q769.h5); cited from earlier work
HIV-1 isolates = conditions: most HIV-1 isolates; cited from earlier work
HSV-2 [4] = conditions: in vitro; read-out: cell-dependent EC50; cited from earlier work
HSV-2 [5] = conditions: in vivo; cited from earlier work
[6] = tested on: HIV-1-enveloped pseudovirus; conditions: subcutaneous administration in mice; cited from earlier work

Molecule: Nc1nc2c(ncn2COCCO)c(=O)[nH]1 [free ACV, acyclovir]
- IC50 (HSV-2 [1]; Human alphaherpesvirus 2, Vero C1008, 72 h, fiber eluant collected after 3 days, read-out: average IC50): 0.287 µg/mL (≈ 1.27 µM)
- IC50 (HSV-2 [1]; Human alphaherpesvirus 2, Vero C1008, 672 h, after 28 days in SVF, read-out: IC50): 0.293 µg/mL (≈ 1.3 µM)
- IC50 (HSV-2 [1]; Human alphaherpesvirus 2, Vero C1008, eluant released between 21 and 28 days, read-out: IC50): 0.293 µg/mL (≈ 1.3 µM)

Molecule: CC(C)OC(=O)OCOP(=O)(CO[C@H](C)Cn1cnc2c(N)ncnc21)OCOC(=O)OC(C)C [free TDF, tenofovir disoproxil fumarate]
- protection against HIV-1 (HIV-1): complete protection against HIV-1

Molecule: griffithsin [free GRFT]
- IC50 of free GRFT [2]: 233±2.7 ng GRFT/mL
- block of HIV-1 infection in ectocervical explants (HIV-1BaL): blocks HIV-1 infection
- concentration down to which HIV-1 infection was blocked (HIV-1BaL; ectocervical tissue, 10^4 TCID50 HIV-1BaL overnight, 21 days culture): 10 µM
- previous literature measurement for free GRFT [3]: 157 ng/mL
- in vitro inhibitory activity (EC50) (HIV-1 isolates): mid-pM to low-nM range
- EC50 (HSV-2 [4]): 2.3 to 143 µM
- HSV-2 cell entry (HSV-2 [5]): modestly inhibited
- HSV-2 cell-to-cell spread (HSV-2 [5]): completely inhibiting
- antiviral activity of serum from treated animals [6]: retained antiviral activity
